Reference: patent EP2121694B1, “CYCLOPROPYL FUSED INDOLOBENZAZEPINE HCV NS5B INHIBITORS” (Bristol-Myers Squibb Company, priority 2007, dated 2008)
Where two headings read alike, the source gives them in different places.

Key:
HCV NS5B = molecular target: T1, HCV NS5B (Hepatitis C virus genotype 1b, UniProt Q9WMX2); assay: Modified HCV NS5B RdRp enzyme assay (preincubation protocol); type: biochemical; conditions: HCV NS5B RdRp genotype 1b
T1 construct: The protein was expressed with an 18 amino acid C-terminal truncation to enhance the solubility; made in house; host or cells: E. coli BL21(DE3), pET21a vector
Method: HCV NS5B RdRp cloning, expression, and purification. The cDNA encoding the NS5B protein of HCV, genotype 1b, was cloned into the pET21a expression vector. The protein was expressed with an 18 amino acid C-terminal truncation to enhance the solubility. The E. coli competent cell line BL21(DE3) was used for expression of the protein. Cultures were grown at 37 °C for ∼ 4 hours until the cultures reached an optical density of 2.0 at 600 nm. The cultures were cooled to 20 °C and induced with 1 mM IPTG. Fresh ampicillin was added to a final concentration of 50 µg/ml and the cells were grown overnight at 20 °C.
Cell pellets (3L) were lysed for purification to yield 15-24 mgs of purified NS5B. The lysis buffer consisted of 20 mM Tris-HCl, pH 7.4, 500 mM NaCl, 0.5% triton X-100, 1 mM DTT, 1mM EDTA, 20% glycerol, 0.5 mg/ml lysozyme, 10 mM MgCl2, 15 ug/ml deoxyribonuclease I, and Complete TM protease inhibitor tablets (Roche). After addition of the lysis buffer, frozen cell pellets were resuspended using a tissue homogenizer. To reduce the viscosity of the sample, aliquots of the lysate were sonicated on ice using a microtip attached to a Branson sonicator. The sonicated lysate was centrifuged at 100,000 x g for 1hr at 4 °C and filtered through a 0.2 µm filter unit (Corning).
The protein was purified using three sequential chromatography steps: Heparin sepharose CL-6B, polyU sepharose 4B, and Hitrap SP sepharose (Pharmacia). The chromatography buffers were identical to the lysis buffer but contained no lysozyme, deoxyribonuclease I, MgCl2 or protease inhibitor and the NaCl concentration of the buffer was adjusted according to the requirements for charging the protein onto the column. Each column was eluted with a NaCl gradient which varied in length from 5-50 column volumes depending on the column type. After the final chromatography step, the resulting purity of the enzyme is >90% based on SDS-PAGE analysis. The enzyme was aliquoted and stored at -80 °C.
Standard HCV NS5B RdRp enzyme assay. HCV RdRp genotype 1b assays were run in a final volume of 60 µl in 96 well plates (Costar 3912). The assay buffer is composed of 20 mM Hepes, pH 7.5, 2.5 mM KCl, 2.5 mM MgCl2, 1 mM DTT, 1.6 U RNAse inhibitor (Promega N2515), 0.1 mg/ml BSA (Promega R3961), and 2 % glycerol. All compounds were serially diluted (3-fold) in DMSO and diluted further in water such that the final concentration of DMSO in the assay was 2%. HCV RdRp genotype 1b enzyme was used at a final concentration of 28 nM. A polyA template was used at 6 nM, and a biotinylated oligo-dT12 primer was used at 180 nM final concentration. Template was obtained commercially (Amersham 27-4110). Biotinylated primer was prepared by Sigma Genosys. 3H-UTP was used at 0.6 µCi (0.29 µM total UTP). Reactions were initiated by the addition of enzyme, incubated at 30 °C for 60 min, and stopped by adding 25 µl of 50 mM EDTA containing SPA beads (4 µg/µl, Amersham RPNQ 0007). Plates were read on a Packard Top Count NXT after >1hr incubation at room temperature.
Modified HCV NS5B RdRp enzyme assay. A modified enzyme assay was performed essentially as described for the standard enzyme assay except for the following: The biotinylated oligo dT12 primer was precaptured on streptavidin-coated SPA beads by mixing primer and beads in assay buffer and incubating at room temperature for one hour. Unbound primer was removed after centrifugation. The primer-bound beads were resuspended in 20 mM Hepes buffer, pH 7.5 and used in the assay at final concentrations of 20 nM primer and 0.67 µg/µl beads. Order of addition in the assay: enzyme (14 nM) was added to diluted compound followed by the addition of a mixture of template (0.2 nM) , 3H-UTP (0.6 µCi, 0.29 µM), and primer-bound beads, to initiate the reaction; concentrations given are final. Reactions were allowed to proceed for 4 hours at 30° C.
IC50 values for compounds were determined using seven different [I]. […]

HCV replicon = assay: HCV FRET screening assay in HCV replicon cells; type: cell-based; conditions: Hepatitis C virus
Description: FRET Assay Preparation. To perform the HCV FRET screening assay, 96-well cell culture plates were used. The FRET peptide (Anaspec, Inc.) (Taliani et al., Anal. Biochem. 1996, 240, 60-67) contains a fluorescence donor, EDANS, near one end of the peptide and an acceptor, DABCYL, near the other end. The fluorescence of the peptide is quenched by […] resonance energy transfer (RET) between the donor and the acceptor, but as the NS3 protease cleaves the peptide the products are released from RET quenching and the fluorescence of the donor becomes apparent. The assay reagent was made as follows: 5X cell Luciferase cell culture lysis reagent from Promega (#E153A) diluted to 1X with dH2O, NaCl added to 150 mM final, the FRET peptide diluted to 20 uM final from a 2 mM stock.
To prepare plates, HCV replicon cells, with or without a Renilla luciferase reporter gene, were trypsinized and placed into each well of a 96-well plate with titrated test compounds added in columns 3 through 12; columns 1 and 2 contained a control compound (HCV protease inhibitor), and the bottom row contained cells without compound. The plates were then placed in a CO2 incubator at 37 °C.
Assays. Subsequent to addition of the test compounds described above (FRET Assay Preparation), at various times the plate was removed and Alamar blue solution (Trek Diagnostics, #00-100) was added per well as a measure of cellular toxicity. After reading in a Cytoflour 4000 instrument (PE Biosystems), plates were rinsed with PBS and then used for FRET assay by the addition of 30 ul of the FRET peptide assay reagent described above (FRET Assay Preparation) per well. The plate was then placed into the Cytoflour 4000 instrument which had been set to 340 excite/490 emission, automatic mode for 20 cycles and the plate read in a kinetic mode. Typically, the signal to noise using an endpoint analysis after the reads was at least three-fold. Alternatively, after Alamar blue reading, plates were rinsed with PBS, 50 ul of DMEM (high glucose) without phenol red was added and plates were then used for luciferase assay using the Promega Dual-Glo Luciferase Assay System.
Compound analysis was determined by quantification of the relative HCV replicon inhibition and the relative cytotoxicity values. To calculate cytoxicity values, the average Alamar Blue fluorescence signals from the control wells were set as 100% non-toxic. The individual signals in each of the compound test wells were then divided by the average control signal and multiplied by 100% to determine […]. To calculate the HCV replicon inhibition values, an average background value was obtained from the two wells containing the highest amount of HCV protease inhibitor at the end of the assay period. These numbers were similar to those obtained from naïve Huh-7 cells.
The background numbers were then subtracted from the average signal obtained from the control wells and this number was used as 100% activity. The individual signals in each of the compound test wells were then divided by the averaged control values after background subtraction and multiplied by 100% to determine percent activity. EC50 values for a protease inhibitor titration were calculated as the concentration which caused a 50% reduction in FRET or luciferase activity. The two numbers generated for the compound plate, percent cytoxicity and percent activity were used to determine compounds of interest for further analysis.

[1] = HCV replicon cells, FRET assay, read-out: EC50

T1 sequence (Q9WMX2 2420-2992): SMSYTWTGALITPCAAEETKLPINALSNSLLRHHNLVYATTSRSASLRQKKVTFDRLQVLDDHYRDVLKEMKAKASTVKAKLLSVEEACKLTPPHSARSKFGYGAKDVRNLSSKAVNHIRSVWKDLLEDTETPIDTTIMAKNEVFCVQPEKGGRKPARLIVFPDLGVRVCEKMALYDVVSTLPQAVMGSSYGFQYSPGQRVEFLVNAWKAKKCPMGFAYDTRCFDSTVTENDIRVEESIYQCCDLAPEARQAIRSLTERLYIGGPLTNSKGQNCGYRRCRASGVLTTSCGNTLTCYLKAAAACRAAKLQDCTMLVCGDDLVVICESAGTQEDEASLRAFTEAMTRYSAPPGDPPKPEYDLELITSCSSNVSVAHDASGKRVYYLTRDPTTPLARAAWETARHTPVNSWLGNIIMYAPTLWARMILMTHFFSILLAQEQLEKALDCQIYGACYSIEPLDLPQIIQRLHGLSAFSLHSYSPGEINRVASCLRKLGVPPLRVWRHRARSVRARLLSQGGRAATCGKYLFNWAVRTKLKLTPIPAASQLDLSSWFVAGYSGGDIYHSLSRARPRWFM

Compound: COc1ccc2c(c1)C1CC1(C(=O)N1CCCNCC1)Cn1c-2c(C2CCCCC2)c2ccc(C(=O)NS(=O)(=O)N(C)C)cc21 (centres unmarked)
- IC50 (HCV NS5B): 97 to 1000 nM
- EC50 (HCV replicon; [1]): 97 to 1000 nM

Compound: COc1ccc2c(c1)C1CC1(C(=O)N1C[C@@H](C)O[C@@H](C)C1)Cn1c-2c(C2CCCCC2)c2ccc(C(=O)NS(=O)(=O)C3CC3)cc21 (some centres unmarked)
- IC50 (HCV NS5B): 97 to 1000 nM
- EC50 (HCV replicon; [1]): 97 to 1000 nM

Compound: CCN(CC)CCN1CCCN(C(=O)C23CC2c2cc(OC)ccc2-c2c(C4CCCCC4)c4ccc(C(=O)NS(=O)(=O)N(C)C)cc4n2C3)CC1 (centres unmarked)
- IC50 (HCV NS5B): 97 to 1000 nM
- EC50 (HCV replicon; [1]): 97 to 1000 nM

Compound: C[C@@H]1CN(C(=O)C23CC2c2c(OC(F)(F)F)cccc2-c2c(C4CCCCC4)c4ccc(C(=O)O)cc4n2C3)C[C@H](C)O1 (some centres unmarked)
- IC50 (HCV NS5B): 97 to 1000 nM
- EC50 (HCV replicon; [1]): 97 to 1000 nM

Compound: COc1ccc2c(c1)C1CC1(C(=O)N1CC(C)OC(C)C1)Cn1c-2c(C2CCCCC2)c2ccc(C(=O)NS(C)(=O)=O)cc21 (centres unmarked)
- IC50 (HCV NS5B): 97 to 1000 nM
- EC50 (HCV replicon): 97 to 1000 nM

Compound: COc1ccc2c(c1)C1CC1(C(=O)N1CCOC[C@H]1CO)Cn1c-2c(C2CCCCC2)c2ccc(C(=O)NS(=O)(=O)N(C)C)cc21 (some centres unmarked)
- IC50 (HCV NS5B): 97 to 1000 nM
- EC50 (HCV replicon; [1]): 97 to 1000 nM

Compound: COc1ccc2c(c1)C1CC1(C(=O)N1CCC(C)(O)CC1)Cn1c-2c(C2CCCCC2)c2ccc(C(=O)NS(C)(=O)=O)cc21 (centres unmarked)
- IC50 (HCV NS5B): 97 to 1000 nM
- EC50 (HCV replicon; [1]): 97 to 1000 nM

Compound: COc1ccc2c(c1)C1CC1(C(=O)N1CC[C@H](N(C)C)C1)Cn1c-2c(C2CCCCC2)c2ccc(C(=O)NS(=O)(=O)N(C)C)cc21 (some centres unmarked)
- IC50 (HCV NS5B): 97 to 1000 nM
- EC50 (HCV replicon; [1]): 97 to 1000 nM

Compound: COc1ccc2c(c1)C1CC1(C(=O)N1CCN(c3ccccn3)CC1)Cn1c-2c(C2CCCCC2)c2ccc(C(=O)NS(=O)(=O)C3CC3)cc21 (centres unmarked)
- IC50 (HCV NS5B): 97 to 1000 nM
- EC50 (HCV replicon; [1]): 97 to 1000 nM

Compound: COCC1CN(C(=O)C23CC2c2cc(OC)ccc2-c2c(C4CCCCC4)c4ccc(C(=O)NS(=O)(=O)N(C)C)cc4n2C3)CCO1 (centres unmarked)
- IC50 (HCV NS5B): 97 to 1000 nM
- EC50 (HCV replicon): 97 to 1000 nM

Compound: COc1ccc2c(c1)C1CC1(C(=O)N(C)CCN(C)C)Cn1c-2c(C2CCCCC2)c2ccc(C(=O)NS(=O)(=O)N(C)C)cc21 (centres unmarked)
- IC50 (HCV NS5B): 97 to 1000 nM
- EC50 (HCV replicon; [1]): 97 to 1000 nM

Compound: COc1ccc2c(c1)C1CC1(C(=O)N1CCOC[C@H]1CN)Cn1c-2c(C2CCCCC2)c2ccc(C(=O)NS(=O)(=O)N(C)C)cc21 (some centres unmarked)
- IC50 (HCV NS5B): 97 to 1000 nM
- EC50 (HCV replicon; [1]): 97 to 1000 nM

Compound: COc1ccc2c(c1)C1CC1(C(=O)N1CCCN(C)CC1)Cn1c-2c(C2CCCCC2)c2ccc(C(=O)NS(=O)(=O)C3CC3)cc21 (centres unmarked)
- IC50 (HCV NS5B): 97 to 1000 nM
- EC50 (HCV replicon; [1]): 97 to 1000 nM

Compound: COc1ccc2c(c1)C1CC1(C(=O)N1CCC(C)(O)CC1)Cn1c-2c(C2CCCCC2)c2ccc(C(=O)NS(N)(=O)=O)cc21 (centres unmarked)
- IC50 (HCV NS5B): 97 to 1000 nM
- EC50 (HCV replicon; [1]): 97 to 1000 nM

Compound: COc1ccc2c(c1)C1CC1(C(=O)N1CC[C@@H](N(C)C)C1)Cn1c-2c(C2CCCCC2)c2ccc(C(=O)NS(=O)(=O)N(C)C)cc21 (some centres unmarked)
- IC50 (HCV NS5B): 97 to 1000 nM
- EC50 (HCV replicon; [1]): 97 to 1000 nM

Compound: COc1ccc2c(c1)C1CC1(C(=O)N1CCCN(C)CC1)Cn1c-2c(C2CCCCC2)c2ccc(C(=O)NS(N)(=O)=O)cc21 (centres unmarked)
- IC50 (HCV NS5B): 97 to 1000 nM
- EC50 (HCV replicon; [1]): 97 to 1000 nM
